US9808438B2, “Method for treating mucositis” (ENZYCHEM LIFESCIENCES CORPORATION, priority 2015, dated 2017)
Several values for one entry are separate records, joined by “and”; a condition that tells them apart may be missing. Equal entries are not always repeated.

How the values were obtained:
[1] = system: recurrent oral ulceration (ROU); test: In vivo effect of PLAG on recurrent oral ulceration in patients, self-reported scoring system; set-up: species or system human
Description: Total 44 patients with recurrent oral ulceration (ROU) between 20 and 80 years old (34 female patients and 10 male patients, Disease; RAS ([…]), BD (27 patients), SLE (1 patient), Mean age: 49.3±9.0) were enrolled in the study. The diagnosis of ROU was made based upon the history and the physical examination on oral mucosa by physicians. We included three conditions with recurrent oral ulceration: Recurrent aphthous stomatitis (RAS), Behcet's disease (BD), Systemic lupus erythematosus (SLE). After completing baseline assessments, 250 mg of PLAG was administered to the patients orally twice a day (250 mg PLAG per tablet, 500 mg/day) for 2-4 weeks. The change of recurrent oral ulcer in the patients was evaluated at 2 or 4 weeks after the treatment by using self-reported scoring system (total 12 points), including the following three measurements: change of ulcer frequency (Likert 0-4), Change of ulcer severity: pain & size (Likert 0-4) and Change of ulcer duration (Likert 0-4).

sepsis animal model = conditions: cecal-ligation-puncture sepsis model; cited from earlier work
[2] = GLP toxicity test; cited from earlier work
[3] = system: hematopoietic stem cells and megakaryocytes; conditions: cited from earlier work
[4] = 44 patients, relation to PLAG cannot be excluded
[5] = average of 44 patients, 500 mg/day orally, 2-4 weeks

Q: Which “side effect of PLAG” value ([1]; 44 patients, 500 mg/day orally, 2-4 weeks) does the source give for `CCCCC/C=C\C/C=C\CCCCCCCC(=O)OC(COC(C)=O)COC(=O)CCCCCCCCCCCCCCC` (stereo not shown) [PLAG, 1-palmitoyl-2-linoleoyl-3-acetylglycerol] here?
A: any clear side effect of PLAG was not identified

Q: What about the “patients with mild dyspepsia” value [1, 4] of the same compound?
A: two

Q: And the “patients with mild skin rash” value [1, 4]?
A: one

Q: What about the “patients with mild taste change (metallic taste)” value [1, 4] of the same compound?
A: one

Q: What about the “effect on symptoms of oral ulceration” value ([1]; administration of PLAG to the patients) of the same compound?
A: significantly improves the symptoms of oral ulceration

Q: What about the “change of ulcer duration (Likert 0-4), average” value [1, 5] of the same compound?
A: 1.86±0.72 and 1.86

Q: And the “change of ulcer frequency (Likert 0-4), average” value [1, 5]?
A: 2.07±0.55 and 2.07

Q: What about the “change of ulcer severity: pain & size (Likert 0-4), average” value [1, 5] of the same compound?
A: 2.13±0.68 and 2.14

Q: What about the “total (sum of the three scores), average” value [1, 5] of the same compound?
A: 5.93±1.76 points and 5.93 points

Q: What about the significant improvement ([1]; individual patient, 1 or 0 from sum of the three scores) of the same compound?
A: 1 (considered to be significantly improved when the sum of the three scores was more than 5 points)

Q: And the “survivability ratio of animals” value (sepsis animal model)?
A: increases survivability ratio of animals

Q: And the toxicity [2]?
A: no toxicity

Q: And the growth-stimulating activities [3]?
A: have growth-stimulating activities of hematopoietic stem cells and megakaryocytes
